The assay relates to L1210 leukemia ip in BDF1 mice, survival T/C. The experiment in a line: NCI In Vivo Anticancer Drug Screen. Data for tumor model L1210 Leukemia (intraperitoneal) in B6D2F1 (BDF1) mice. The note with it: endpoint: mean survival time, higher = longer survival. The method in brief:
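Tumor was transplanted into mice, which were then dosed with test compound or vehicle alone. Survival was recorded for each group, and the treated figure was expressed relative to the control figure.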

Where [1] appears, read: dose: 50.0 mg/kg/injection, schedule: Q04DX002 (ip), vehicle: Klucel (hydroxypropylcellulose) (HPC).
Setting [2] is: dose: 100.0 mg/kg/injection, schedule: Q04DX002 (ip), vehicle: Klucel (hydroxypropylcellulose) (HPC).
Setting [3] is: dose: 200.0 mg/kg/injection, schedule: Q04DX002 (ip), vehicle: Klucel (hydroxypropylcellulose) (HPC).
Setting [4] is: dose: 100.0 mg/kg/injection, schedule: Q01DX001 (ip), vehicle: carboxymethylcellulose (CMC).
The mark [5] stands for this setting: dose: 100.0 mg/kg/injection, schedule: Q04DX003 (ip), vehicle: carboxymethylcellulose (CMC).
The mark [6] stands for this setting: dose: 200.0 mg/kg/injection, schedule: Q01DX001 (ip), vehicle: carboxymethylcellulose (CMC).
Setting [7] is: dose: 200.0 mg/kg/injection, schedule: Q04DX003 (ip), vehicle: carboxymethylcellulose (CMC).
Where [8] appears, read: dose: 400.0 mg/kg/injection, schedule: Q01DX001 (ip), vehicle: carboxymethylcellulose (CMC).
The mark [9] stands for this setting: dose: 100.0 mg/kg/injection, schedule: Q01DX009 (ip), vehicle: saline with Tween-80.
[10] abbreviates: dose: 100.0 mg/kg/injection, schedule: Q04DX003 (ip), vehicle: saline with Tween-80.
Setting [11] is: dose: 200.0 mg/kg/injection, schedule: Q04DX003 (ip), vehicle: saline with Tween-80.
Setting [12] is: dose: 400.0 mg/kg/injection, schedule: Q04DX003 (ip), vehicle: saline with Tween-80.
[13] abbreviates: dose: 75.0 mg/kg/injection, schedule: Q01DX001 (ip), vehicle: saline.
Setting [14] is: dose: 150.0 mg/kg/injection, schedule: Q01DX001 (ip), vehicle: saline.
Where [15] appears, read: dose: 300.0 mg/kg/injection, schedule: Q01DX001 (ip), vehicle: saline.

Values joined by “and” are separate entries in the source; they are usually repeats but may differ in a detail not shown here. Equal values may be shown once. Inconclusive results and toxic doses are left out. Peptide text beside a SMILES is read from it. * marks the point of attachment. Bn = c1ccc(C*)cc1; For = O=C*

For the compound `O=P(N1CCCC1)(N1CC1)N1CC1`, the T/C was 94 % of control (dose: 1.3 mg/kg/injection, schedule: Q01DX Z (ip), vehicle: carboxymethylcellulose (CMC)); 109 % of control (dose: 2.0 mg/kg/injection, schedule: Q01DX Z (ip), vehicle: carboxymethylcellulose (CMC)); 114 % of control and 120 % of control (dose: 2.0 mg/kg/injection, schedule: Q01DX Z (ip), vehicle: saline); 109 % of control (dose: 3.0 mg/kg/injection, schedule: Q01DX Z (ip), vehicle: carboxymethylcellulose (CMC)); 160 % of control (dose: 4.5 mg/kg/injection, schedule: Q01DX Z (ip), vehicle: carboxymethylcellulose (CMC)); 118 % of control (dose: 7.5 mg/kg/injection, schedule: Q01DX Z (ip), vehicle: saline).

For `N#Cc1nc2c3ccccc3c(N=NC(N)=S)c-2[nH]c1C#N`, the T/C reads like this: under setting [1], 87 % of control; under setting [2], 91 % of control; under setting [3], 91 % of control.

For the compound `C1=Nc2ccccc2/C1=C/c1cccs1`, the T/C runs as follows: under setting [4], 97 % of control; (dose: 100.0 mg/kg/injection, schedule: Q01DX009 (ip), vehicle: carboxymethylcellulose (CMC)) 96 % of control and 108 % of control; (dose: 100.0 mg/kg/injection, schedule: Q04DX002 (ip), vehicle: carboxymethylcellulose (CMC)) 100 % of control and 102 % of control; under setting [5], 95 % of control; under setting [6], 98 % of control; (dose: 200.0 mg/kg/injection, schedule: Q01DX009 (ip), vehicle: carboxymethylcellulose (CMC)) 96 % of control and 105 % of control. The T/C was 104 % of control and 110 % of control (dose: 200.0 mg/kg/injection, schedule: Q04DX002 (ip), vehicle: carboxymethylcellulose (CMC)); 89 % of control under setting [7]; 93 % of control under setting [8]; 89 % of control and 91 % of control (dose: 400.0 mg/kg/injection, schedule: Q01DX009 (ip), vehicle: carboxymethylcellulose (CMC)); 103 % of control and 104 % of control (dose: 400.0 mg/kg/injection, schedule: Q04DX002 (ip), vehicle: carboxymethylcellulose (CMC)).

As for `COC(=O)C1OC1(C)c1ccc(C)cc1` (centres undefined), the T/C under setting [9] was 92 % of control and the T/C (dose: 400.0 mg/kg/injection, schedule: Q01DX009 (ip), vehicle: saline with Tween-80) was 106 % of control.

As for `COc1ccccc1N1C(=O)CC(Sc2ccccc2N)C1=O` (centres undefined), the T/C is, setting by setting: (dose: 100.0 mg/kg/injection, schedule: Q01DX009 (ip), vehicle: saline sonified) 95 % of control; (dose: 100.0 mg/kg/injection, schedule: Q04DX003 (ip), vehicle: saline sonified) 87 % of control; (dose: 200.0 mg/kg/injection, schedule: Q01DX009 (ip), vehicle: saline sonified) 88 % of control; (dose: 200.0 mg/kg/injection, schedule: Q04DX003 (ip), vehicle: saline sonified) 94 % of control; (dose: 400.0 mg/kg/injection, schedule: Q01DX009 (ip), vehicle: saline sonified) 93 % of control; (dose: 400.0 mg/kg/injection, schedule: Q04DX003 (ip), vehicle: saline sonified) 96 % of control.

Consider `COc1cc(C=O)cc(I)c1O`, for which the T/C is, setting by setting: (dose: 12.5 mg/kg/injection, schedule: Q01DX009 (ip), vehicle: saline with Tween-80) 94 % of control; (dose: 25.0 mg/kg/injection, schedule: Q01DX009 (ip), vehicle: saline with Tween-80) 94 % of control; (dose: 50.0 mg/kg/injection, schedule: Q01DX009 (ip), vehicle: saline with Tween-80) 91 % of control.

As to `CCC(C)(C)C(=O)OCc1ccccc1`, the T/C under setting [1] is 105 % of control; the T/C under setting [2] was 94 % of control; the T/C under setting [3] is 94 % of control and 111 % of control; the T/C (dose: 400.0 mg/kg/injection, schedule: Q04DX002 (ip), vehicle: Klucel (hydroxypropylcellulose) (HPC)) is 103 % of control.

With `COC1=C(Br)C(=O)C(Br)=C(OC)C1=O`, the T/C is, setting by setting: (dose: 100.0 mg/kg/injection, schedule: Q04DX002 (ip), vehicle: other) 107 % of control; (dose: 200.0 mg/kg/injection, schedule: Q04DX002 (ip), vehicle: other) 96 % of control.

For `CCCCCCC(=O)N(CC)CC`, the T/C by setting is: (dose: 100.0 mg/kg/injection, schedule: Q04DX002 (ip), vehicle: saline) 94 % of control; (dose: 200.0 mg/kg/injection, schedule: Q04DX002 (ip), vehicle: saline) 98 % of control; (dose: 400.0 mg/kg/injection, schedule: Q04DX002 (ip), vehicle: saline) 91 % of control.

As for `COC(=O)C1CN1C(c1ccccc1)(c1ccccc1)c1ccccc1` (centres undefined), the T/C reads like this: (dose: 100.0 mg/kg/injection, schedule: Q01DX001 (ip), vehicle: saline with Tween-80) 92 % of control; under setting [10], 94 % of control; (dose: 200.0 mg/kg/injection, schedule: Q01DX001 (ip), vehicle: saline with Tween-80) 100 % of control; under setting [11], 98 % of control; (dose: 400.0 mg/kg/injection, schedule: Q01DX001 (ip), vehicle: saline with Tween-80) 90 % of control; under setting [12], 90 % of control.

On to `CCOC(=O)C(O)(CC)c1ccncc1Br` (centres undefined), for which the T/C (dose: 75.0 mg/kg/injection, schedule: Q04DX003 (ip), vehicle: Klucel (hydroxypropylcellulose) (HPC)) was 95 % of control; the T/C (dose: 100.0 mg/kg/injection, schedule: Q01DX001 (ip), vehicle: Klucel (hydroxypropylcellulose) (HPC)) was 102 % of control; the T/C (dose: 150.0 mg/kg/injection, schedule: Q04DX003 (ip), vehicle: Klucel (hydroxypropylcellulose) (HPC)) is 91 % of control; the T/C (dose: 200.0 mg/kg/injection, schedule: Q01DX001 (ip), vehicle: Klucel (hydroxypropylcellulose) (HPC)) was 102 % of control; the T/C (dose: 300.0 mg/kg/injection, schedule: Q04DX003 (ip), vehicle: Klucel (hydroxypropylcellulose) (HPC)) was 101 % of control; the T/C (dose: 400.0 mg/kg/injection, schedule: Q01DX001 (ip), vehicle: Klucel (hydroxypropylcellulose) (HPC)) is 112 % of control.

Turning to `COc1cccc(CNC(C)(C)CO)c1`, the T/C by setting is: under setting [13], 95 % of control; under setting [14], 102 % of control; under setting [15], 104 % of control.

Turning to `O=c1[nH]c2ccccc2nc1C(Cl)Cl`, the T/C (dose: 100.0 mg/kg/injection, schedule: Q04DX003 (ip), vehicle: Klucel (hydroxypropylcellulose) (HPC)) was 115 % of control.

On to `CCCCCCCCCCCCCCCCSC(=N)N`, for which the T/C under setting [5] is 91 % of control and the T/C under setting [7] was 93 % of control.

Turning to `C=C(Cl)CO`, the T/C was 118 % of control (dose: 25.0 mg/kg/injection, schedule: Q04DX003 (ip), vehicle: saline) and 89 % of control (dose: 50.0 mg/kg/injection, schedule: Q04DX003 (ip), vehicle: saline).

Take `CC(NC(=O)OCc1ccccc1)C(=O)NC(CCC(=O)OCc1ccccc1)C(=O)OCc1ccccc1` (centres undefined): the T/C by setting is: under setting [10], 93 % of control; under setting [11], 92 % of control; under setting [12], 92 % of control.

For the compound `CC(C)CC(NC(=O)C(Cc1ccc(OCc2ccccc2)cc1)NC=O)C(=O)O` (centres undefined) (For-Tyr(Bn)-Leu-OH; configuration not given here), the T/C runs as follows: under setting [9], 98 % of control; under setting [10], 97 % of control; (dose: 200.0 mg/kg/injection, schedule: Q01DX009 (ip), vehicle: saline with Tween-80) 98 % of control; under setting [11], 97 % of control; under setting [12], 92 % of control.

Take `CC1([N+](=O)[O-])COP(=O)(NCc2ccncc2)OC1` (centres undefined): the T/C reads like this: (dose: 50.0 mg/kg/injection, schedule: Q01DX001 (ip), vehicle: carboxymethylcellulose (CMC)) 107 % of control; under setting [4], 104 % of control; under setting [6], 104 % of control; under setting [8], 109 % of control.

`CCCCCCN(CCCCCC)C(=S)[S-].CCCCCCN(CCCCCC)C(=S)[S-].[Zn]`: the T/C was 112 % of control under setting [13], 104 % of control under setting [14] and 103 % of control under setting [15].

For the compound `c1ccc([P+]2(c3ccccc3)CC[P+](c3ccccc3)(c3ccccc3)CC2)cc1`, the T/C is, setting by setting: (dose: 9.5 mg/kg/injection, schedule: Q01DX001 (ip), vehicle: saline) 103 % of control; (dose: 19.0 mg/kg/injection, schedule: Q01DX001 (ip), vehicle: saline) 101 % of control; (dose: 38.0 mg/kg/injection, schedule: Q01DX001 (ip), vehicle: saline) 97 % of control; under setting [13], 100 % of control.
